Our source for the IC50, Activity and inhibition values is ChEMBL document CHEMBL1152802, “Discovery of novel Trypanosoma cruzi glyceraldehyde-3-phosphate dehydrogenase inhibitors” (Bioorg Med Chem, 2009).

For assay [1], the target named is Glyceraldehyde-3-phosphate dehydrogenase, glycosomal (Trypanosoma cruzi, UniProt P22513). As to the kind of experiment: (§1) Inhibition of Trypanosoma cruzi recombinant glycosomal GAPDH expressed in Escherichia coli by spectrophotometry.
Assay [2] concerns Trypanosoma cruzi. Put plainly: Antitrypanosomal activity against Trypanosoma cruzi amastigote forms. Type of assay: functional, organism-based.
Assay [3] deals with Trypanosoma cruzi. Put plainly: Antitrypanosomal activity against Trypanosoma cruzi amastigote forms at 841 uM. Type of assay: functional.
Another assay concerns Ehrlich. Put plainly: Cytotoxicity against mouse Ehrlich carcinoma cells. It is filed as functional, cell-based.
The subject of another assay is Leishmania amazonensis. Put plainly: Antileishmanial activity against Leishmania amazonensis amastigote forms at 841 uM. Type of assay: functional.
Assay [4] has as its target Glyceraldehyde-3-phosphate dehydrogenase, glycosomal (Trypanosoma cruzi) (UniProt P22513). The assay is described as §1. To be noted: concentration not given here.

Sequence of Glyceraldehyde-3-phosphate dehydrogenase, glycosomal (P22513 whole entry): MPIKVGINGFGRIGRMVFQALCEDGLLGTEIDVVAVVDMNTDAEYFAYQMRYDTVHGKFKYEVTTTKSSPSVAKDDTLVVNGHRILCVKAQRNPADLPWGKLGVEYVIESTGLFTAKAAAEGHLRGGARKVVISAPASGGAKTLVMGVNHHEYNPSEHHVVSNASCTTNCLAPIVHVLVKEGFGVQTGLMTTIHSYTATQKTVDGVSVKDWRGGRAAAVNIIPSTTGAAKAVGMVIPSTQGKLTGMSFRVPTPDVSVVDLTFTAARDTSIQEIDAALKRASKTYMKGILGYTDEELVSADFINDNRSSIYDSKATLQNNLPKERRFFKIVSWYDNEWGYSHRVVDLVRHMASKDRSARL
Sequence of Glyceraldehyde-3-phosphate dehydrogenase, glycosomal (Trypanosoma cruzi) (P22513 whole entry): as above

For the compound `CCCCCC/C=C/CCCCCCCc1cccc(O)c1C(=O)O`, the IC50 (commonly the concentration at which inhibition is half-maximal) in assay [1] is 161 µM.
Still for that read-out and setting: the same measure for `COc1cccc(C(=O)N[C@@H]2[C@H](O)[C@@H](COP(=O)(O)O)O[C@H]2n2cnc3c(NCc4cccc5ccccc45)ncnc32)c1`: 5 µM; for `COc1cccc(C(=O)N[C@@H]2[C@H](O)[C@@H](CO)O[C@H]2n2cnc3c(NCc4cccc5ccccc45)ncnc32)c1`: 12 µM.
The same measure, in the same setting: the same measure for `C=CC/C=C/C/C=C/CCCCCCCc1cccc(O)c1C(=O)O`: 38 µM; for `CCC/C=C/C/C=C/CCCCCCCc1cccc(O)c1C(=O)O`: 69 µM; for `COc1cc2oc(-c3cc(OC)c(OC)c(OC)c3)cc(=O)c2cc1OC`: 81 µM.
Same read-out and setting: the same measure for `CC(=O)Oc1ccc(-c2cc3cc(OC(C)=O)c(OC(C)=O)cc3oc2=O)cc1OC(C)=O`: 17.8 µM; for `COc1ccc(-c2coc3cc(O)c(OC)cc3c2=O)cc1` [CASTANIN]: 84 µM.
Turning to `C=CC(C)(C)c1cc2cc3c(cc2oc1=O)O[C@H](C(C)(C)O)C3` [CHALEPIN], in assay [1], the IC50 is 64 µM.
On the same count and under the same terms, the same measure for `O=c1ccc2ccccc2o1` [COUMARIN]: 692 µM; for `O=c1c(O[C@@H]2OC[C@H](O)[C@H](O)[C@H]2O)c(-c2ccc(O)c(O)c2)oc2cc(O)cc(O)c12` [GUAJAVERIN]: 140 µM.
On the same count and under the same terms, the same measure for `O=c1c2cc(O)c(O)cc2oc2cc(O)c([C@@H]3O[C@H](CO)[C@@H](O)[C@H](O)[C@H]3O)c(O)c12` [MANGIFERIN]: 149 µM.
With `O=c1c(O)c(-c2ccc(O)c(O)c2)oc2cc(O)cc(O)c12` [QUERCETIN], the IC50 is 771 µM in the assay on Trypanosoma cruzi [2] and 142 µM in assay [1].
Turning to `O=C(/C=C/c1ccc(O)cc1)OC[C@H]1O[C@@H](Oc2c(-c3ccc(O)cc3)oc3cc(O)cc(O)c3c2=O)[C@H](O)[C@@H](O)[C@@H]1O` [TILIROSIDE], the Activity in the assay on Trypanosoma cruzi [3] came out at 45%; with Leishmania amazonensis, 67.8%. Further, the IC50 in the assay with Ehrlich is 69.5 µM; in assay [1], 46 µM.
Consider `O=c1ccc2ccc(O)cc2o1` [UMBELLIFERONE], for which, in assay [1], the IC50 is 617 µM.
Consider `C[C@H]1[C@H](C)CC[C@]2(C(=O)O)CC[C@]3(C)C(=CC[C@@H]4[C@@]5(C)CC[C@H](O)C(C)(C)[C@@H]5CC[C@]43C)[C@H]12` [URSOLIC ACID], for which, in the assay with Trypanosoma cruzi [2], the IC50 is 4 µM. Moreover, the inhibition (in general, the share of the control response that was lost under treatment) in assay [4] turned out to be 25%.
